For assay [1], the system named is serum cholesterol. Put plainly: percentage change of serum cholesterol in cholesterol-fed rats. The settings on record: Rattus norvegicus, 72 h, once a day for three days, cholesterol-enriched feed, vs control; for change in vivo at 1 mg/kg: 1 mg/kg oral; for change in vivo at 10 mg/kg: 10 mg/kg oral. The format is in vivo, Male Wistar rats. The text has this: Measurement of percentage change of serum cholesterol
Male Wistar rats having a weight of 200 g were preliminarily bred for 7 days while they freely ingested a normal feed (CE-2 manufactured by CLEA Japan Inc.).
Thereafter, they were bred for 3 days while they freely ingested a feed enriched with cholesterol and fat (2% cholesterol, 1% cholic acid, 20% casein, 45% fine granulated sugar, 12% coconut oil, 4% KC flock, 1% mixed vitamin, 7% mixed mineral and 8% dried fish powder; a product of CLEA Japan Inc.). During the cholesterol loading period, the test compound of the present invention was orally administered to the above test animals at a dose of 0.1 to 10 mg per kg of the weight once a day for three days. On the other hand, the excipient alone was administered to the control animals.
After 8 hrs from the last administration, the test animals were fasted. 16 hr after the initiation of the fasting, these test animals were slaughtered. The serum cholesterol level was measured for each animal.
The results were compared with those of the control and are given as percentage serum cholesterol (%) in Table 3.
Percentage change of serum cholesterol (%)={(A-B)/B}×100
wherein A represents the total cholesterol level of serum in the group of rats to which the test compound was administered; and B represents the total cholesterol level of serum in the control group of rats.

Assay [2] concerns the target T1, ACAT (Oryctolagus cuniculus, UniProt G1SFD9).
T1 construct: from tissue; host or cells: domestic rabbit intestinal mucosa, microsome fraction (105,000×g precipitate)
T1 sequence (G1SFD9 1-524): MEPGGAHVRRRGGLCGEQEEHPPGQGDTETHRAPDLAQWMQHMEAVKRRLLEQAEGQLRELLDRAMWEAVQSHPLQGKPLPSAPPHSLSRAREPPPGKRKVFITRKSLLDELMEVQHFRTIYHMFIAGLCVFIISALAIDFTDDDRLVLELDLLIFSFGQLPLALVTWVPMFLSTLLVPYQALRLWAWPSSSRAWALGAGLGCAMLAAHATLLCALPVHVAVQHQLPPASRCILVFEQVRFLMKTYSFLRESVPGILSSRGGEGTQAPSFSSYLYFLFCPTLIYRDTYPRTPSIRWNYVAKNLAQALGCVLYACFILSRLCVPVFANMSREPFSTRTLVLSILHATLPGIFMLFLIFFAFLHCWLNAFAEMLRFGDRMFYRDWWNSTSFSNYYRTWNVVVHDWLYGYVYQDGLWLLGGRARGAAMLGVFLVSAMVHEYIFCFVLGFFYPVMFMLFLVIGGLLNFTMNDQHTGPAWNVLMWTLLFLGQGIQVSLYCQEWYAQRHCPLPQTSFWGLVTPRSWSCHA
The experiment in a line: ACAT enzyme inhibitory activity of rabbit intestinal mucosa. The format is biochemical. The following applies: rabbit intestinal mucosa microsome, [1-14C] oleoyl CoA, 37° C., pH 7.4. The protocol:
Measurement of ACAT enzyme inhibitory activity (measurement of ACAT enzyme inhibitory activity of rabbit intestinal mucosa)
Preparation of a domestic rabbit intestinal mucosa microsome and measurement of the ACAT enzyme activity were conducted by slightly modifying a method established by Salone and Field (see Biochemica et Biophysica, vol. 712, 557 (1982).
The supernatant was further centrifuged at 105,000×g and a temperature of 4° C. for one hour to provide a precipitate. The precipitate was resuspended in the buffer A to provide a microsome fraction.
A 1 %v/v dimethylsulfoxide solution of each specimen compound in a predetermined concentration was added to the buffer A containing 43 μM serum albumin and 0.5 mg/ml microsome fraction, and the mixture was heated at 37° C. for 5 min.
Then, 43 μM oleoyl CoA containing [1^-14 C] oleoyl CoA (3.7 kB) was added thereto, the mixture was heated at 37° C. for 10 rain, and chloroform/methanol (2/1) containing 10 mg/ml cholesteryl oleate was added thereto to terminate the reaction.
0.111 kB of [^3 H] cholesteryl oleate and 1N hydrochloric acid were added thereto, and the mixture was stirred. The cholesteryl oleate extracted into the chloroform layer was isolated by thin-layer chromatography, and the radioactivity was measured as the ACAT activity.

Each structure is given as a SMILES string. pIC50: −log10 of the molar value.

Consider `CCCCCCCCCCC(C)(C)C(=O)Nc1c(C)cc(C)c2c1OC(C)(C)C2` [Ex. 5, N-(2,2,4,6-tetramethyl-2,3-dihydrobenzofuran-7-yl)-2,2-dimethyldodecaneamide], for which the change in vivo at 1 mg/kg in assay [1] is -61%. On the same count and under the same terms, with `CCCCCCCCCCC(C)(C)C(=O)Nc1c(C)c(N(C)C)c(C)c2c1OC(C)(C)C2` [Ex. 8, N-(5-dimethylamino-2,2,4,6-tetramethyl-2,3-dihydrobenzofuran-7-yl)-2,2-dimethyldodecaneamide] the figure was -71%. Take `CCCCCCCCCCC1(C(=O)Nc2c(C)c(C)cc3nc(-c4ccccc4)oc23)CCCC1` [Ex. 20]: in assay [1], the change in vivo at 10 mg/kg was -46%. For `CCCOCCCCCCOc1ccc(C(=O)Nc2c(C)cc(C)c3c2OC(C)(C)C3)cc1` [Ex. 29], the change in vivo at 1 mg/kg in assay [1] was -23%.

In the case of `CCCCCCCCCCC1(C(=O)Nc2c(C)ccc3c2OC(C)(C)C3)CCCC1` [Ex. 36], in assay [1], the change in vivo at 10 mg/kg is -52%. On to `Cc1cc(C)c(NC(=O)C(C)(C)CCCCCc2ccccc2)c2c1CC(C)(C)O2` [Ex. 42], for which the change in vivo at 1 mg/kg in assay [1] is -44%.

In turn, `Cc1cc(C)c(NC(=O)C(C)(C)CCCc2ccc(CC(C)C)cc2)c2c1CC(C)(C)O2` [Ex. 45] had a pIC50 in assay [2] of 7.55. For the same compound, the change in vivo at 1 mg/kg in assay [1] is -58%. As to `Cc1cc(C)c(NC(=O)C(C)(C)CCCCCCOCC(C)C)c2c1CC(C)(C)O2` [Ex. 49], the change in vivo at 1 mg/kg in assay [1] was -50%. `Cc1cc(C)c(NC(=O)C(C)(C)CCCCCCOCC(C)(C)C)c2c1CC(C)(C)O2` [Ex. 50]: the pIC50 in assay [2] was 7.35. Besides, the change in vivo at 10 mg/kg in assay [1] is -54%. In the case of `Cc1cc(C)c(NC(=O)C(C)(C)CCCCOCc2ccccc2)c2c1CC(C)(C)O2` [Ex. 53], the change in vivo at 10 mg/kg in assay [1] is -50%. Consider `Cc1cc(C)c(NC(=O)C(C)(C)CCCCOc2ccc(C(C)(C)C)cc2)c2c1CC(C)(C)O2` [Ex. 58], for which the pIC50 in assay [2] was 6.77. In addition, the change in vivo at 10 mg/kg in assay [1] is -27%. `Cc1cc(C)c(NC(=O)C(C)(C)CCCCOc2ccc(Cl)cc2)c2c1CC(C)(C)O2` [Ex. 59]: the change in vivo at 1 mg/kg in assay [1] is -43%. On the same count and under the same terms, with `Cc1cc(C)c(NC(=O)C(C)(C)CCCCCOc2ccc(Cl)cc2)c2c1CC(C)(C)O2` [Ex. 61] the figure was -64%. With `Cc1ccc(OCCCCCC(C)(C)C(=O)Nc2c(C)cc(C)c3c2OC(C)(C)C3)cc1` [Ex. 62], the pIC50 in assay [2] is 7.19. For the same compound, the change in vivo at 1 mg/kg in assay [1] is -18%.

With `Cc1cc(C)c(NC(=O)C(C)(C)CCCCCCOc2ccc(Cl)cc2)c2c1CC(C)(C)O2` [Ex. 68], in assay [1], the change in vivo at 1 mg/kg was -75%. `Cc1cc(C)c(NC(=O)C(C)(C)CCCCCCOc2ccc(N(C)C)cc2)c2c1CC(C)(C)O2` [Ex. 71] gave a pIC50 in assay [2] of 6.89. Moreover, the change in vivo at 1 mg/kg in assay [1] is -49%. Regarding `Cc1cc(C)c(NC(=O)C(C)(C)CCCCN2CCN(Cc3ccccc3)CC2)c2c1CC(C)(C)O2` [Ex. 78], the pIC50 in assay [2] was 6.48. The change in vivo at 10 mg/kg in assay [1] was -43%.

`Cc1cc(C)c(NC(=O)C(C)(C)CCCCCCN2CCN(Cc3ccccc3)CC2)c2c1CC(C)(C)O2` [Ex. 79] showed a pIC50 in assay [2] of 6.46. The compound `CCCCCCCCCCOc1ccc(C(=O)C(C)(C)C(=O)Nc2c(C)cc(C)c3c2OC(C)(C)C3)cc1` [Ex. 80] gave a pIC50 in assay [2] of 7.40. The same measure, in the same setting: with `CCCCCCCCCCCCCCCC(=O)Nc1c(C)cc(C)c2c1OC(C)(C)C2` [Ex. 81] the figure was 6.59; with `CCCCCCCCCCCCCCCC(=O)Nc1c(C)c(Cl)c(C)c2c1OC(C)(C)C2` [Ex. 83], 7.14.

In turn, `CCCCCCCCCCOc1ccc(C(=O)CC(=O)Nc2c(C)cc(C)c3c2OC(C)(C)C3)cc1` [Ex. 88, N-(2,2,4,6-tetramethyl-2,3-dihydrobenzofuran-7-yl)3-(4-decyloxyphenyl)-3-oxpropaneamide] gave a pIC50 in assay [2] of 6.96.

The values are drawn from patent publication US5496853A, “Benzoxa condensed ring compounds, process for producing the same and pharmaceutical composition comprising the same” (Teijin Limited, priority 1990, dated 1996).
